Assay results as given in patent publication US20240376099A1, “COMPOUNDS AND COMPOSITIONS AS INHIBITORS OF ENDOSOMAL TOLL-LIKE RECEPTORS” (Novartis AG, priority 2016, published 2024).

biological target: T1, TLR8 (Homo sapiens, UniProt Q9NR97); experiment: huPBMC TLR8 Antagonist IL-6 TR-FRET Assay; assay type: cell-based; set-up: Fresh blood was collected from normal human donors; endogenous in cells; host or cells: human PBMCs from fresh donor blood; settings: human PBMCs stimulated with ssRNA40 1 μg/ml (DOTAP), 14-16 hrs; IL-6 TR-FRET read-out
T1 sequence (Q9NR97 27-1041): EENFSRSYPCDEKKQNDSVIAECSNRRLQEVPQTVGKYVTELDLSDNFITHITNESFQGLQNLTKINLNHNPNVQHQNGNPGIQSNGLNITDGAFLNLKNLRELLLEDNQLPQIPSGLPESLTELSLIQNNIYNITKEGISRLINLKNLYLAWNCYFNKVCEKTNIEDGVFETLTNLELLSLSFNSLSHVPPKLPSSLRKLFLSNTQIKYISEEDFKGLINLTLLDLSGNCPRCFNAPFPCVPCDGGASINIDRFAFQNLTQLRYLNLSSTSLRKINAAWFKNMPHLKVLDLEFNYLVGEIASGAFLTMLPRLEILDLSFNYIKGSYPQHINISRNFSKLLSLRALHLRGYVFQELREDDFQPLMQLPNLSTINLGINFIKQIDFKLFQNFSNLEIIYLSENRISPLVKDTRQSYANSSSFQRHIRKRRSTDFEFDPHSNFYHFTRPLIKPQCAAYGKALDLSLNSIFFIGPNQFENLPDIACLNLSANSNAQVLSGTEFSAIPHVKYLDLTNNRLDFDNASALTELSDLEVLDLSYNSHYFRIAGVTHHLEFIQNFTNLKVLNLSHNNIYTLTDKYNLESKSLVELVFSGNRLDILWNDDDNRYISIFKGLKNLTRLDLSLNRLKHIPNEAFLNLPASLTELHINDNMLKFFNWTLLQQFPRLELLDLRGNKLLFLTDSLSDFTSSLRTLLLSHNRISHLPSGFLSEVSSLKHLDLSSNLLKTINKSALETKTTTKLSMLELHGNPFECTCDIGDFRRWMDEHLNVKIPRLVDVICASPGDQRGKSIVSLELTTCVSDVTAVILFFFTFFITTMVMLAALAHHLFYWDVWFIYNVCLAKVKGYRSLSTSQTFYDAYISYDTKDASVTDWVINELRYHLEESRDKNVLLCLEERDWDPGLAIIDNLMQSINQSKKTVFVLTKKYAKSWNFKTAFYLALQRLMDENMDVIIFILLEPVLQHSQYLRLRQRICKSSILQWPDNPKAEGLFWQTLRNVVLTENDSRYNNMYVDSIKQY
Experimental: Compounds were generally serially diluted (1/3) in DMSO and plated on sterile 384 well tissue culture plates and stored until ready for use. Each ten-point dilution was typically plated in triplicate in parallel rows.
Fresh blood was collected from normal human donors underwritten informed consent in heparinized syringes on the morning of the assay. The blood was diluted in RPMI-1640 medium and the white blood cells were separated from red blood cells by centrifugation (800 g 15′ 0 acceleration, 0 brake) on a Ficoll cushion. Peripheral blood mononuclear cells (PBMCs) were separated from platelets by a series of low-speed centrifugations (1000RPM 10′) in PBS+5% HI—FBS and 1 mM EDTA. Purified PBMCs were re-suspended in assay medium (RPMI-1640 w Glutamax (Invitrogen) supplemented with 5% HI—FBS, 10 mM HEPES, 50 uM β-mercaptoethanol, and 100 mG/L penicillin/streptomycin cocktail). Viable PBMCs were counted on a hemacytometer and kept on ice until ready for plating.
A 4× concentration (4 ug/ml or 40 ug/ml for TLR8 or TLR7 assays, respectively) of the TLR7/8 agonist ssRNA40 (IDT) was complexed with 10% DOTAP (Roche) in assay medium for 30 min prior to addition to the PBMC suspension (5 million cells/ml). After addition, the final concentration of ssRNA40 in the TLR7/8 stimulated PBMC suspension was 1 μg/ml for TLR8 assay, and 10 μg/mL for the TLR7 assay. The final DOTAP concentration was 2.5%. Diluted PBMCs (5 million cells/ml) were treated with 4×TLR9 agonist ODN2216 (Invivogen). Final concentration of ODN2216 in TLR9 stimulated PBMC suspension was 0.3 μM.
Agonist stimulated PBMCs were plated on the compound treated 384 well plates at 150,000 cells/well. Un-stimulated PBMCs were plated as controls on each plate. Plating volume was 40 μL per well. DMSO concentration in each well was 0.25%.
A separate plate, without compounds, with titrations of ssRNA40 and ODN2216 was included in every assay to measure agonist response of each donor's PBMC prep. Assay plates were placed in a tissue culture incubator (37° C., 5% CO2) for 14-16 hrs. After this incubation, the plates were centrifuged and stored at −20° C. until they were assayed.
IL-6 TR-FRET Assay for TLR8 activity: • 1) Cisbio Human IL-6 kit, 20,000 tests (62TNFPEC), and GNF High-Base TC 384 well plates (cat #789163G) were used; • 2) the Anti-TIL-6 Cryptate conjugate and the Anti-IL-6 XL665 conjugate were diluted 1:20 in Reconstitution Buffer; • 3) a 1:1 mixture of 3 μl/well Anti-IL-6 Cryptate conjugate and 3 μl/well Anti-IL-6 XL665 conjugate was prepared; • 4) 6 μl/well HTRF dilution mastermix was added to 6 μl of transferred supernatant samples in proxiplates; • 5) The plates were incubated for 3 hrs at rt in the dark; and • 6) the levels of IL-6 production was measured using an Envision plate reader (665 nm (emmission)/590 nm (excitation)) with HTRF settings and ratiometric read-out: (XL665 emission/Eu Cryptate emission)×10,000. IFNα2b AlphaLISA Assay for TLR7 or TLR9 activity After thawing the assay plates, 6 μL of supernatant samples were transferred to a low-volume AlphaPlate 384SW (Perkin-Elmer). The concentration of IFNα in supernatants was measured using the IFNα2b AlphaLISA Assay (Perkin-Elmer: AL297F). 3 μL of IFNα acceptor beads/biotinylated antibody solution was added first, using laboratory automation. After an hour incubation, […] of streptavidin […] bead solution was added. The plates containing this mixture were incubated in the dark for an hour and read on an appropriate plate reader at reading parameters set by the manufacturer. (Envision, EnSpire: Perkin-Elmer).

Row | SMILES | IC50
1 | Cc1nc(N2CCc3c(c(C)nn3CC34CCC(N)(CC3)CC4)C2)c2cc[nH]c2n1 [Compound No. 4, 4-((3-methyl-5-(2-methyl-7H-pyrrolo[2,3-d]pyrimidin-4-yl)-4,5,6,7-tetrahydro-1H-pyrazolo[4,3-c]pyridin-1-yl)methyl)bicyclo[2.2.2]octan-1-amine] | 511 nM
2 | Cc1cc(N2CCc3c(c(C)nn3CC34CCC(NC(=O)CN(C)C)(CC3)CC4)C2)c2cnn(C)c2n1 [Compound No. 7, N-(4-((5-(1,6-dimethyl-1H-pyrazolo[3,4-b]pyridin-4-yl)-3-methyl-4,5,6,7-tetrahydro-1H-pyrazolo[4,3-c]pyridin-1-yl)methyl)bicyclo[2.2.2]octan-1-yl)-2-(dimethylamino)acetamide] | 61 nM
3 | COCCN(CCOC)C12CCC(Cn3nc(C)c4c3CCN(c3cc(C)nc5c3cnn5C)C4)(CC1)CC2 [Compound No. 70, 4-((5-(1,6-dimethyl-1H-pyrazolo[3,4-b]pyridin-4-yl)-3-methyl-4,5,6,7-tetrahydro-1H-pyrazolo[4,3-c]pyridin-1-yl)methyl)-N,N-bis(2-methoxyethyl)bicyclo[2.2.2]octan-1-amine] | 379 nM
4 | COCCN(C)C12CCC(Cn3nc(C)c4c3CCN(c3cc(C)nc5c3cnn5C)C4)(CC1)CC2 [Compound No. 73, 4-((5-(1,6-dimethyl-1H-pyrazolo[3,4-b]pyridin-4-yl)-3-methyl-4,5,6,7-tetrahydro-1H-pyrazolo[4,3-c]pyridin-1-yl)methyl)-N-(2-methoxyethyl)-N-methylbicyclo[2.2.2]octan-1-amine] | 139 nM
5 | Cc1cc(N2CCc3c(c(C)nn3CC34CCC(NCC(=O)N(C)C)(CC3)CC4)C2)c2cnn(C)c2n1 [Compound No. 76, 2-((4-((5-(1,6-dimethyl-1H-pyrazolo[3,4-b]pyridin-4-yl)-3-methyl-4,5,6,7-tetrahydro-1H-pyrazolo[4,3-c]pyridin-1-yl)methyl)bicyclo[2.2.2]octan-1-yl)amino)-N,N-dimethylacetamide] | 201 nM
6 | Cc1nn(CC23CCC(N)(CC2)CC3)c2c1CN(c1nc(-c3ccc(F)cc3)nc3c1cnn3C)CC2 [Compound No. 83, 4-((5-(6-(4-fluorophenyl)-1-methyl-1H-pyrazolo[3,4-d]pyrimidin-4-yl)-3-methyl-4,5,6,7-tetrahydro-1H-pyrazolo[4,3-c]pyridin-1-yl)methyl)bicyclo[2.2.2]octan-1-amine] | 865 nM
7 | Cc1cc(N2CCc3c(c(C)nn3CC34CCC(N)(CC3)CC4)C2)c2ccccc2n1 [compound 62, -((3-methyl-5-(2-methylquinolin-4-yl)-4,5,6,7-tetrahydro-1H-pyrazolo[4,3-c]pyridin-1-yl)methyl)bicyclo[2.2.2]octan-1-amine] | 699 nM
8 | Cc1cc(N2Cc3cn(CC45CCC(N)(CC4)CC5)nc3C(C)(C)C2)c2cnn(C)c2n1 [compound 65, 4-((5-(1,6-dimethyl-1H-pyrazolo[3,4-b]pyridin-4-yl)-7,7-dimethyl-4,5,6,7-tetrahydro-2H-pyrazolo[4,3-c]pyridin-2-yl)methyl)bicyclo[2.2.2]octan-1-amine] | 2360 nM
9 | Cc1cc(N2CCc3c(c(C)nn3CC34CCC(N5CCS(=O)(=O)CC5)(CC3)CC4)C2)c2cnn(C)c2n1 [compound 66, 4-(4-((5-(1,6-dimethyl-1H-pyrazolo[3,4-b]pyridin-4-yl)-3-methyl-4,5,6,7-tetrahydro-1H-pyrazolo[4,3-c]pyridin-1-yl)methyl)bicyclo[2.2.2]octan-1-yl)thiomorpholine 1,1-dioxide] | 1130 nM
10 | Cc1cc(N2CCc3c(c(C)nn3CC34CCC(N5CC(O)C5)(CC3)CC4)C2)c2cnn(C)c2n1 [compound 68, 1-(4-((5-(1,6-dimethyl-1H-pyrazolo[3,4-b]pyridin-4-yl)-3-methyl-4,5,6,7-tetrahydro-1H-pyrazolo[4,3-c]pyridin-1-yl)methyl)bicyclo[2.2.]octan-1-yl)azetidin-3-ol] | 155 nM
11 | Cc1cc(N2CCc3c(c(C)nn3CC34CCC(N(C)C(C)C)(CC3)CC4)C2)c2cnn(C)c2n1 [compound 78, 4-((5-(1,6-dimethyl-1H-pyrazolo[3,4-b]pyridin-4-yl)-3-methyl-4,5,6,7-tetrahydro-1H-pyrazolo[4,3-c]pyridin-1-yl)methyl)-N-isopropyl-N-methylbicyclo[2.2.2]octan-1-amine] | 474 nM
12 | Cc1cc(N2CCc3c(c(C)nn3CC34CCC(N)(CC3)CO4)C2)c2cnn(C)c2n1 [compound 81, 1-((5-(1,6-dimethyl-1H-pyrazolo[3,4-b]pyridin-4-yl)-3-methyl-4,5,6,7-tetrahydro-1H-pyrazolo[4,3-c]pyridin-1-yl)methyl)-2-oxabicyclo[2.2.2]octan-4-amine] | 395 nM
13 | Cc1cc(N2CCc3c(c(C)nn3CC34CCC(N5CCCC5)(CC3)CO4)C2)c2cnn(C)c2n1 [compound 82, 5-(1,6-dimethyl-1H-pyrazolo[3,4-b]pyridin-4-yl)-3-methyl-1-((4-(pyrrolidin-1-yl)-2-oxabicyclo[2.2.2]octan-1-yl)methyl)-4,5,6,7-tetrahydro-1H-pyrazolo[4,3-c]pyridine] | 486 nM
14 | Cc1nn(CC23CCC(N)(CC2)CC3)c2c1CN(c1ccnc(-c3ccc(F)cc3)c1)CC2 [compound 87, 4-((5-(2-(4-fluorophenyl)pyridin-4-yl)-3-methyl-4,5,6,7-tetrahydro-1H-pyrazolo[4,3-c]pyridin-1-yl)methyl)bicyclo[2.2.2]octan-1-amine] | 1100 nM
15 | Cc1ccc(-c2cc(N3CCc4c(c(C)nn4CC45CCC(N)(CC4)CC5)C3)ccn2)c(F)c1 [compound 88, 4-((5-(2-(2-fluoro-4-methylphenyl)pyridin-4-yl)-3-methyl-4,5,6,7-tetrahydro-1H-pyrazolo[4,3-c]pyridin-1-yl)methyl)bicyclo[2.2.2]octan-1-amine] | 715 nM
